# From PubChem BioAssay (NCI)
#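 Here, GI50 denotes the concentration required for 50% inhibition of growth. TGI: concentration producing complete growth inhibition.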
# How the values were obtained:
# Assay in all cases: inhibition of tumour cell growth, NCI panel, 384-well format
# [1] = test system: 786-0 renal
# [2] = test system: A498 renal
# [3] = test system: A549 NSCLC
# [4] = test system: ACHN renal
# [5] = test system: BT-549 breast
# [6] = test system: CAKI-1 renal
# [7] = test system: CCRF-CEM leukemia
# [8] = test system: COLO 205 colon
# [9] = test system: DU-145 prostate
# [10] = test system: EKVX NSCLC
# [11] = test system: HCC-2998 colon
# [12] = test system: HCT-116 colon
# [13] = test system: HCT-15 colon
# [14] = test system: HOP-62 NSCLC
# [15] = test system: HOP-92 NSCLC
# [16] = test system: HS 578T breast
# [17] = test system: HT29 colon
# [18] = test system: IGROV1 ovarian
# [19] = test system: K-562 leukemia
# [20] = test system: KM12 colon
# [21] = test system: LOX IMVI melanoma
# [22] = test system: M14 melanoma
# [23] = test system: MALME-3M melanoma
# [24] = test system: MCF7 breast
# [25] = test system: MDA-MB-231 breast
# [26] = test system: MDA-MB-435 melanoma
# [27] = test system: MDA-MB-468 breast
# [28] = test system: MOLT-4 leukemia
# [29] = test system: NCI-H226 lung
# [30] = test system: NCI-H23 lung
# [31] = test system: NCI-H322M lung
# [32] = test system: NCI-H460 NSCLC
# [33] = test system: NCI-H522 lung
# [34] = test system: NCI/ADR-RES ovarian
# [35] = test system: OVCAR-3 ovarian
# [36] = test system: OVCAR-4 ovarian
# [37] = test system: OVCAR-8 ovarian
# [38] = test system: PC-3 prostate
# [39] = test system: RXF 393 renal
# [40] = test system: SF-268 CNS
# [41] = test system: SF-295 CNS
# [42] = test system: SF-539 CNS
# [43] = test system: SK-MEL-28 melanoma
# [44] = test system: SK-MEL-5 melanoma
# [45] = test system: SK-OV-3 ovarian
# [46] = test system: SN12C renal
# [47] = test system: SNB-75 CNS
# [48] = test system: SW-620 colon
# [49] = test system: T-47D breast
# [50] = test system: TK-10 renal
# [51] = test system: U251 glioblastoma
# [52] = test system: UACC-257 melanoma
# [53] = test system: UACC-62 melanoma
# [54] = test system: UO-31 renal
smiles,measurement,setting,value
Cc1cc(C(=O)NOCCO)c(Nc2ccc(I)cc2F)n(C)c1=O,GI50,[1],0.0446 µM
same,TGI,[1],> 100 µM
same,GI50,[2],35.7 µM
same,TGI,[2],> 100 µM
same,GI50,[3],0.0118 µM
same,TGI,[3],74.2 µM
same,GI50,[4],22.2 µM
same,TGI,[4],> 100 µM
same,GI50,[5],20.4 µM
same,TGI,[5],> 100 µM
same,GI50,[6],0.012 µM
same,TGI,[6],> 100 µM
same,GI50,[7],> 100 µM
same,TGI,[7],> 100 µM
same,GI50,[8],< 0.01 µM
same,TGI,[8],0.0132 µM
same,GI50,[9],4.72 µM
same,TGI,[9],> 100 µM
same,GI50,[10],0.0243 µM
same,TGI,[10],> 100 µM
same,GI50,[11],< 0.01 µM
same,TGI,[11],< 0.01 µM
same,GI50,[12],< 0.01 µM
same,TGI,[12],0.121 µM
same,GI50,[13],0.145 µM
same,TGI,[13],> 100 µM
same,GI50,[14],< 0.01 µM
same,TGI,[14],> 100 µM
same,GI50,[15],0.0157 µM
same,TGI,[15],0.125 µM
same,GI50,[16],0.0264 µM
same,TGI,[16],> 100 µM
same,GI50,[17],< 0.01 µM
same,TGI,[17],> 100 µM
same,GI50,[18],< 0.01 µM
same,TGI,[18],> 100 µM
same,GI50,[19],0.0114 µM
same,TGI,[19],> 100 µM
same,GI50,[20],< 0.01 µM
same,TGI,[20],> 100 µM
same,GI50,[21],< 0.01 µM
same,TGI,[21],0.116 µM
same,GI50,[22],< 0.01 µM
same,TGI,[22],< 0.01 µM
same,GI50,[23],< 0.01 µM
same,TGI,[23],< 0.01 µM
same,GI50,[24],> 100 µM
same,TGI,[24],> 100 µM
same,GI50,[25],< 0.01 µM
same,TGI,[25],0.138 µM
same,GI50,[26],< 0.01 µM
same,TGI,[26],> 100 µM
same,GI50,[27],49.7 µM
same,TGI,[27],> 100 µM
same,GI50,[28],> 100 µM
same,TGI,[28],> 100 µM
same,GI50,[29],0.0389 µM
same,TGI,[29],94.4 µM
same,GI50,[30],< 0.01 µM
same,TGI,[30],0.0435 µM
same,GI50,[31],< 0.01 µM
same,TGI,[31],> 100 µM
same,GI50,[32],< 0.01 µM
same,TGI,[32],> 100 µM
same,GI50,[33],33.2 µM
same,TGI,[33],> 100 µM
same,GI50,[34],> 100 µM
same,TGI,[34],> 100 µM
same,GI50,[35],62.9 µM
same,TGI,[35],> 100 µM
same,GI50,[36],> 100 µM
same,TGI,[36],> 100 µM
same,GI50,[37],32 µM
same,TGI,[37],> 100 µM
same,GI50,[38],> 100 µM
same,TGI,[38],> 100 µM
same,GI50,[39],0.0582 µM
same,TGI,[39],> 100 µM
same,GI50,[40],> 100 µM
same,TGI,[40],> 100 µM
same,GI50,[41],65.7 µM
same,TGI,[41],> 100 µM
same,GI50,[42],0.052 µM
same,TGI,[42],> 100 µM
same,GI50,[43],< 0.01 µM
same,TGI,[43],< 0.01 µM
same,GI50,[44],< 0.01 µM
same,TGI,[44],> 100 µM
same,GI50,[45],> 100 µM
same,TGI,[45],> 100 µM
same,GI50,[46],< 0.01 µM
same,TGI,[46],48.7 µM
same,GI50,[47],0.18 µM
same,TGI,[47],> 100 µM
same,GI50,[48],< 0.01 µM
same,TGI,[48],> 100 µM
same,GI50,[49],> 100 µM
same,TGI,[49],> 100 µM
same,GI50,[50],0.0521 µM
same,TGI,[50],> 100 µM
same,GI50,[51],0.0391 µM
same,TGI,[51],> 100 µM
same,GI50,[52],< 0.01 µM
same,TGI,[52],< 0.01 µM
same,GI50,[53],< 0.01 µM
same,TGI,[53],< 0.01 µM
same,GI50,[54],0.0404 µM
same,TGI,[54],> 100 µM
